{"source": "patent US10557124B2", "about": "“Compositions and methods for obtaining stem cell derived lung tissue, and related uses thereof” (The Regents of the University of Michigan, priority 2015, dated 2020)", "molecules": {"B1": {"name": "FGF10: protein that belongs to the fibroblast growth factor (FGF) family (protein, UniProt O15520 38-208, looked up)", "Fibroblast growth factor 10": "QALGQDMVSPEATNSSSSSFSSPSSAGRHVRSYNHLQGDVRWRKLFSFTKYFLKIEKNGKVSGTKKENCPYSILEITSVEIGVVAVKAINSNYYLAMNKKGKLYGSKEFNNDCKLKERIEENGYNTYASFNWQHNGRQMYVALNGKGAPRRGQKTRRKNTSAHFLPMVVHS"}}, "assay_type_in_all_cases": "cell-based, human", "key": {"[1]": {"system": "anterior foregut endoderm (hESC-derived, ActivinA then NOG/SB)", "test": "qRT-PCR of SHH, NKX2.1, PAX8 in foregut endoderm monolayer cultures treated with FGF/HH modulators", "conditions": "for PAX8 expression / SHH expression / NKX2.1 expression: vs foregut control (FGF2: vs untreated endoderm controls), FGF2 50/500 ng/mL; for PAX8 expression / NKX2.1 expression: Sant-2 10 μM", "from_the_text": "Many signaling pathways are important for lung induction and development (see, e.g., Wong A P, et al., Nat Biotechnol. 2012 Aug. 26; Huang S X L, et al., Nature; 2013 Dec. 1; 1-11; Firth A L, et al., Proceedings of the National Academy of Sciences. 2014 Apr. 29; 111(17):E1723-30; Mou H, et al., Cell Stem Cell. 2012 Apr. 6; 10(4):385-97; Ghaedi M, et al., J. Clin. Invest. 2013 Nov. 1; 123(11):4950-62; Longmire T A, et al., Cell Stem Cell. 2012 Apr. 6; 10(4):398-411; Rankin S A, Zorn A M. Gene Regulatory Networks Governing Lung Specification. J Cell Biochem. 2014 Mar. 19; Morrisey E E, et al., Developmental Cell. Elsevier Inc; 2010 Jan. 19; 18(1):8-23; Min H, et al., Genes & Development. 1998 Oct. 15; 12(20):3156-61; Weaver M, et al., Development. 2000 June; 127(12):2695-704). […] 2011 Feb. 3; 470(7332):105-9; Wells J M, et al., Development. 2014 February; 141(4):752-60; Motoyama J, et al., Nat Genet. 1998 September; 20(1):54-7) and Hh signaling is important for lung mesenchyme proliferation in vivo (see, e.g., Bellusci S, et al., Development. 1997 January; 124(1):53-63). […] It has been reported that approximately 85-95% of cells are endoderm, but a portion of the remaining cells are mesodermal and this small mesodermal population is maintained in the spheroids and organoids (see, e.g., Spence J R, et al., Nature. 2011 Feb. 3; 470(7332):105-9; McCracken K W, et al., Nature; 2014 Oct. 29; 1-19; Green M D, et al., Nat Biotechnol.; 2011 Feb. 27; 1-7) (FIG. 4). Therefore, based on mouse and hPSC studies, it was hypothesized that FGF and/or HH signaling would induce an NKX2.1+ lung lineage in anterior foregut endoderm. To test this hypothesis experiments initially focused on adherent endoderm monolayer cultures to optimize induction conditions. Cultures were treated for 4 days with ActivinA followed by an additional 4 days with NOG/SB (referred to as Foregut). Controls consisted of ActivinA treatment only followed by no additional growth factors (Endoderm controls), or ActivinA followed by NOG/SB, followed by no additional factors (Foregut controls). All experimental groups were compared to both endoderm and foregut controls (FIG. 6). The ability of FGF2 to induce SHH, NKX2.1 and PAX8 was first tested by exposing foregut cultures to low and high concentrations of FGF2 (50,500 ng/mL) (FIG. 6A). […] It was also observed that dual NOG/SB inhibition in endoderm cultures induced robust NKX2.1 and PAX8 expression without adding FGF2 (FIG. 1B, 6A). Thus, it was desired to determine if NKX2.1 expression in foregut cultures was due to endogenous FGF and/or HH signaling. To test this, the FGF or HH pathway was inhibited with small molecules SU5402 (SU, 10 μm) and Sant-2 (10 μm) respectively (FIG. 6B-C). Treating foregut cultures with the FGF inhibitor SU caused a significant, robust reduction in PAX8 and a modest reduction in SHH, while NKX2.1 expression was unchanged compared to foregut control (FIG. 6B). […] To test if HH signaling was able to induce NKX2.1 in foregut cultures, the Smoothened agonist, SAG (1 μM), was added to foregut cultures. The addition of SAG induced a 6.5 fold increase of NKX2.1 expression above foregut controls (FIG. 6D).\nThis combination caused an additional increase in NKX2.1 expression (21 fold vs. 6.5 fold with SAG only, when compared to foregut) and a concomitant decrease in PAX8 mRNA (FIG. 6D).\n(§1) After differentiation into definitive endoderm, foregut endoderm was differentiated, essentially as described (see, e.g., Green M D, et al., Nat Biotechnol. Nature Publishing Group; 2011 Feb. 27; 1-7). Briefly, cells were incubated in foregut media: Advanced DMEM/F12 plus N-2 and B27 supplement, 10 mM Hepes, lx L-Glutamine (200 mM), lx Penicillin-streptomycin (5,000 U/mL, all from Life Technologies) with 200 ng/mL Noggin (NOG, R&D Systems) and 10 μM SB431542 (SB, Stemgent) for 4 days. […]"}, "[2]": {"system": "anterior foregut endoderm (hESC-derived, ActivinA then NOG/SB)", "test": "Immunofluorescence of NKX2.1 and PAX8 positive cells in foregut monolayer cultures", "conditions": "compared to endoderm and foregut controls", "method": "Importantly, immunofluorescence correlated with QRT-PCR data showing an increased number of NKX2.1+ cells with the addition of SAG only. […] SAG and SAG+SU treated cells also co-expressed FOXA2 and SOX2 confirming their endodermal origin (FIG. 2).\nas §1\nHLOs with P63+ cells were counted as having proximal airway-like epithelium and HLOs with SFTPC+ cells were counted as having distal airway-like epithelium. The area of proximal epithelium was determined by P63+ECAD+ staining. Area was measured using ImageJ software. Cell quantification of NKX2.1, P63, and DAPI was counted by Metamorph cell counting software. FOXJ1, SFTPC, and HOPX were counted in ImageJ using the cell counter plugin."}, "[3]": {"system": "foregut spheroids (NOG+SB+FGF4+Ch)", "test": "qRT-PCR of foregut spheroids generated with addition of HH agonist SAG", "conditions": "SAG added to NOG+SB+FGF4+Ch spheres; compared to spheres without SAG", "method": "Based on the observations that stimulating HH and inhibiting FGF signaling strongly enhances NKX2.1 expression while reducing PAX8 expression (FIG. 5), multiple conditions of HH activation and FGF inhibition to induce NKX2.1^HI/PAX8^LO foregut spheroids (NOG/SB/F/Ch) were tested (FIG. 8). […] Therefore, several conditions were also tested that stimulated HH signaling using SAG only, without FGF inhibition. […] Additionally, nuclear NKX2.1 protein expression was found in ECAD+ epithelium which co-expressed endoderm epithelial markers FOXA2 and SOX2 (FIG. 10B, C, FIG. 11). […] Thus, concomitant down-regulation of SOX2 and increased NKX2.1 observed in SAG treated foregut spheroids is consistent with early transcriptional changes that occur during lung specification in mice.\nAfter differentiation into definitive endoderm, cells were incubated in foregut media with NOG, SB, 500 ng/mL FGF4 (R&D Systems), and 2 μM CHIR99021 (Chiron, Stemgent) for 4-6 days. After 4 days with treatment of growth factors, three-dimensional floating spheroids were present in the culture. Three-dimensional spheroids were transferred into Matrigel to support 3D growth as previously described (see, e.g., McCracken K W, et al., Nature Protocols; 2011 Nov. 10; 6(12):1920-8). Briefly, spheroids were embedded in a droplet of Matrigel (BD Bioscience #356237) in one well of a 24 well plate, and incubated at room temperature for 10 minutes. After the Matrigel solidified, foregut media with 1% Fetal bovine serum (FBS, CAT#: 16000-044, Life Technologies) or other growth factors and small molecules were overlaid and replaced every 4 days. Organoids were transferred into new Matrigel droplets every 10 to 15 days.\nRNA was extracted from monolayers, spheroids, and organoids using a MagMAX-96 Total RNA Isolation Kit (Life Technologies) and MAG Max Express (Applied Biosystems). RNA quantity and quality were determined spectrophotometrically, using a Nano Drop 2000 (Thermoscientific). Reverse transcription was conducted using the SuperScript VILO kit (Invitrogen), according to manufacturer's protocol. Finally, qRT-PCR was carried out using Quantitect Sybr Green MasterMix (Qiagen) on a Step One Plus Real-Time PCR system (Life Technologies)."}, "[4]": {"system": "NOG/SB/F/Ch/SAG treated foregut spheroids", "test": "Expansion of foregut spheroids in Matrigel into lung organoids", "conditions": "FGF10 500 ng/mL, Matrigel 3D culture", "from_the_text": "NOG/SB/F/Ch/SAG treated foregut spheroids were embedded in Matrigel to provide a 3D growth environment. Spheroids maintained in basal media supplemented with 1% FBS lost ECAD+ epithelial structures and were mainly comprised of mesenchyme within 20 days of 3D culture (FIG. 9D,E). FGF10 is essential for branching morphogenesis and maintenance of lung progenitor cells during development as well as tissue homeostasis in the adult lung (see, e.g., Motoyama J, et al., Nat Genet. 1998 September; 20(1):54-7; Li Y, et al., Developmental Biology. 2004 Jun. 1; 270(1):214-31; Bellusci S, et al., Development. 1997 January; 124(1):53-63; Min H, et al., Genes & Development. 1998 Oct. 15; 12(20):3156-61; Weaver M, et al., Development. 2000 June; 127(12):2695-704; Agha El E, et al., Development. 2013 Dec. 18; Volckaert T, et al., Development 2013 September; 140(18):3731-42). It was observed that the addition of FGF10 (500 ng/mL) allowed spheroids to expand and be passaged for over 100 days. FGF10 promoted the maintenance of ECAD+ epithelial structures with less mesenchymal contributions compared to both basal and FGF inhibitor conditions (FIG. 10D). […] SOX2+ domains and SOX9+ domains were distributed throughout the entire HLO as determined by whole mount immunofluorescence and confocal Z-sections (FIG. 14). […]"}}}
{"molecule": "CNC1CCC(N(Cc2cccc(-c3ccncc3)c2)C(=O)c2sc3ccccc3c2Cl)CC1", "note": "(stereo not shown) [SAG]", "values": [{"measurement": "increase of NKX2.1 expression", "setting": "[1]; foregut endoderm treated 8 days, SAG 1 μM, SU 10 μM, compared to untreated foregut controls", "value": 6.5, "unit": "fold"}, {"measurement": "PAX8 expression", "setting": "[1]; SU 10 μM, SAG 1 μM", "value": "unchanged"}, {"measurement": "NKX2.1+ cells (immunohistochemistry)", "setting": "[2]", "value": "more NKX2.1+ cells"}, {"measurement": "CDX2 transcript", "setting": "[3]", "value": "reduction"}, {"measurement": "HHEX transcript", "setting": "[3]", "value": "not significantly different"}, {"measurement": "NKX2.1 transcript", "setting": "[3]", "value": "significant increase"}, {"measurement": "PAX8 transcript", "setting": "[3]", "value": "not significantly different"}, {"measurement": "PDX1 transcript", "setting": "[3]", "value": "not significantly different"}, {"measurement": "SOX2 transcript", "setting": "[3]", "value": "reduction"}]}
{"molecule": "Cc1c[nH]c(/C=C2\\C(=O)Nc3ccccc32)c1CCC(=O)O", "note": "[SU5402]", "values": [{"measurement": "GLI1 expression", "setting": "[1]; compared to foregut controls", "value": "not significantly different"}, {"measurement": "PTCH1 expression", "setting": "[1]; compared to foregut controls", "value": "not significantly different"}, {"measurement": "SHH expression", "setting": "[1]; SU 10 μM", "value": "significant reduction"}, {"measurement": "NKX2.1 expression", "setting": "[1]; SU 10 μM", "value": "not significantly different"}, {"measurement": "PAX8 expression", "setting": "[1]; SU 10 μM, SAG 1 μM", "value": "significant reduction"}]}
{"molecule": "FGF2: fibroblast growth factor 2 (R&D systems)", "values": [{"measurement": "SHH expression", "setting": "[1]; SU 10 μM", "value": "dose dependent increase"}, {"measurement": "NKX2.1 expression", "setting": "[1]; SU 10 μM", "value": "modest increase"}, {"measurement": "PAX8 expression", "setting": "[1]; SU 10 μM, SAG 1 μM", "value": "dose dependent increase"}]}
{"molecule": "Sant-2", "values": [{"measurement": "NKX2.1 expression", "setting": "[1]; SU 10 μM", "value": "significant reduction"}]}
{"molecule": "B1", "values": [{"measurement": "time spheroids could expand and be passaged", "setting": "[4]", "value": "over 100 days"}]}
